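96-well plates; 48 h exposure; 5 concentrations. Endpoints by linear interpolation between flanking doses. Not reached: highest tested concentration assigned. GI50: concentration for 50% inhibition of growth.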 Calls of active or inactive are those of the source. Rule as the data show it: active = GI50 up to about 1.1 µM and inactive = higher. Where a SMILES comes first, the peptide text is derived from it. The star is where a group is joined. Fmoc = O=C(OCC1c2ccccc2-c2ccccc21)*; OBn = c1ccc(CO*)cc1; tBu = CC(C)(C)*
Tests used:
Assay in all cases: inhibition of tumour cell growth, NCI panel, 48 h
[1] = tested on: EKVX
[2] = tested on: HT-29
[3] = tested on: LOX IMVI
[4] = tested on: OVCAR-4
[5] = tested on: NCI-H460
[6] = tested on: CAKI-1
[7] = tested on: SK-MEL-28
[8] = tested on: SNB-75
[9] = tested on: MCF7
[10] = tested on: T47D
[11] = tested on: HCT-116
[12] = tested on: Malme-3M
[13] = tested on: SR
[14] = tested on: K562
[15] = tested on: SN12C
[16] = tested on: SNB-19
[17] = tested on: KM12
[18] = tested on: MOLT-4
[19] = tested on: SK-MEL-5
[20] = tested on: COLO 205

Row | Compound | GI50 [1] | GI50 [2] | GI50 [3] | GI50 [4] | GI50 [5] | GI50 [6] | GI50 [7] | GI50 [8] | GI50 [9] | GI50 [10] | GI50 [11] | GI50 [12] | GI50 [13] | GI50 [14] | GI50 [15] | GI50 [16] | GI50 [17] | GI50 [18] | GI50 [19] | GI50 [20]
1 | Nc1cccc(OCc2nc(N)nc(N)c2-c2ccc(Cl)cc2)c1 | 52.8 µM (inactive) | 39.4 µM (inactive) | 52.5 µM (inactive) | 49.7 µM (inactive) | 32.9 µM (inactive) | 46.7 µM (inactive) | 70 µM (inactive) | 32.2 µM (inactive) | 37.8 µM (inactive) | 35.8 µM (inactive) | 44.7 µM (inactive) | > 100 µM (inactive) | 36.7 µM (inactive) | 23.9 µM (inactive) | 51.3 µM (inactive) | > 100 µM (inactive) | 57.3 µM (inactive) | 26.1 µM (inactive) | 26.9 µM (inactive) | 18.6 µM (inactive)
2 | COc1cccc(-c2cc(O)c3cc(N4CCCC4)ccc3n2)c1 | 0.166 µM (active) | < 0.001 µM (active) | < 0.001 µM (active) | 2.67 µM (inactive) | < 0.001 µM (active) | < 0.001 µM (active) | < 0.001 µM (active) | < 0.001 µM (active) | 0.0394 µM (active) | > 10 µM (inactive) | < 0.001 µM (active) | < 0.001 µM (active) | < 0.001 µM (active) | < 0.001 µM (active) | < 0.001 µM (active) | < 0.001 µM (active) | < 0.001 µM (active) | < 0.001 µM (active) | < 0.001 µM (active) | < 0.001 µM (active)
3 | CN(C)c1ccc(/C=N/c2ccc(-c3nc4ccccc4s3)cc2)cc1 | 24.6 µM (inactive) | 32.5 µM (inactive) | 33.3 µM (inactive) | 58.7 µM (inactive) | 27.4 µM (inactive) | 28.6 µM (inactive) | 48.9 µM (inactive) | 26.3 µM (inactive) | < 0.01 µM (active) | 20 µM (inactive) | 33 µM (inactive) | 31.6 µM (inactive) | 36.3 µM (inactive) | 28.8 µM (inactive) | 36.1 µM (inactive) | 57.9 µM (inactive) | 24.9 µM (inactive) | 23.2 µM (inactive) | 19.3 µM (inactive) | 23.1 µM (inactive)
4 | CCOC(=O)c1c(N2CCCC2)[nH]c(=O)c(C(c2ccco2)c2c(O)c(C(=O)OCC)c(N3CCCC3)[nH]c2=O)c1O | > 100 µM (inactive) | > 100 µM (inactive) | 37.4 µM (inactive) | > 100 µM (inactive) | > 100 µM (inactive) | > 100 µM (inactive) | > 100 µM (inactive) | 23.4 µM (inactive) | > 100 µM (inactive) | 19.4 µM (inactive) | > 100 µM (inactive) | > 100 µM (inactive) | > 100 µM (inactive) | > 100 µM (inactive) | > 100 µM (inactive) | 38.7 µM (inactive) | > 100 µM (inactive) | > 100 µM (inactive) | 82.6 µM (inactive) | > 100 µM (inactive)
5 | C/C(=N\NC(=S)N/N=C(\C)c1ccccn1)c1ccccn1 | 1.12 µM (inactive) | 0.575 µM (active) | 0.859 µM (active) | 1.04 µM (active) | 0.533 µM (active) | 1.41 µM (inactive) | 8.36 µM (inactive) | 5.93 µM (inactive) | 1.85 µM (inactive) | 6.31 µM (inactive) | 1.84 µM (inactive) | 2.38 µM (inactive) | 2.18 µM (inactive) | 1.92 µM (inactive) | 0.345 µM (active) | 3.56 µM (inactive) | 1.28 µM (inactive) | 1.31 µM (inactive) | 4.61 µM (inactive) | 3 µM (inactive)
6 | Cc1ccc(/N=N\c2c(O)c(S(=O)(=O)O)cc3cc(S(=O)(=O)O)ccc23)c(C)c1 | > 100 µM (inactive) | > 100 µM (inactive) | > 100 µM (inactive) | > 100 µM (inactive) | > 100 µM (inactive) | > 100 µM (inactive) | > 100 µM (inactive) | > 100 µM (inactive) | > 100 µM (inactive) | > 100 µM (inactive) | > 100 µM (inactive) | > 100 µM (inactive) | > 100 µM (inactive) | > 100 µM (inactive) | > 100 µM (inactive) | > 100 µM (inactive) | > 100 µM (inactive) | > 100 µM (inactive) | > 100 µM (inactive) | > 100 µM (inactive)
7 | O=C1OC(C2OC(=O)c3cc(O)c(O)c(O)c3-c3c(O)c(O)c4oc(=O)c5c(c(O)c(O)c6oc(=O)c3c4c65)-c3c(cc(O)c(O)c3O)C(=O)OCC2O)C2OC(=O)c3c(c(O)c(O)c(O)c3[C@H]2O)-c2c1cc(O)c(O)c2O (stereo not given in full) | 13 µM (inactive) | 13.3 µM (inactive) | 11.5 µM (inactive) | 16.1 µM (inactive) | 24.9 µM (inactive) | 10.3 µM (inactive) | 98.2 µM (inactive) | 16.9 µM (inactive) | 6.05 µM (inactive) | 26.7 µM (inactive) | 17.3 µM (inactive) | 31.6 µM (inactive) | 15 µM (inactive) | 19.2 µM (inactive) | 15.9 µM (inactive) | 96.8 µM (inactive) | 15.2 µM (inactive) | 22.6 µM (inactive) | 13.9 µM (inactive) | 14.8 µM (inactive)
8 | CC(OC(C)(C)C)C(NC(=O)OCC1c2ccccc2-c2ccccc21)C(=O)NC(Cc1ccccc1)C(=O)OCc1ccccc1 (stereo not given) (Fmoc-Thr(tBu)-Phe-OBn; configuration not given here) | > 100 µM (inactive) | > 100 µM (inactive) | > 100 µM (inactive) | > 100 µM (inactive) | > 100 µM (inactive) | > 100 µM (inactive) | > 100 µM (inactive) | > 100 µM (inactive) | > 100 µM (inactive) | > 76.7 µM (inactive) | > 100 µM (inactive) | > 100 µM (inactive) | > 87.9 µM (inactive) | > 100 µM (inactive) | > 100 µM (inactive) | > 100 µM (inactive) | > 100 µM (inactive) | > 61.9 µM (inactive) | > 100 µM (inactive) | > 100 µM (inactive)
9 | Cc1cc2cc3cc(C)c(N)cc3nc2cc1N [ACRIDINE YELLOW] | 0.535 µM (active) | 0.359 µM (active) | 0.478 µM (active) | 0.566 µM (active) | 0.358 µM (active) | 0.791 µM (active) | 1.51 µM (inactive) | 1.53 µM (inactive) | 0.475 µM (active) | 0.865 µM (active) | 0.208 µM (active) | 1.26 µM (inactive) | 0.209 µM (active) | 0.687 µM (active) | 0.448 µM (active) | 0.716 µM (active) | 0.508 µM (active) | 0.237 µM (active) | 2.27 µM (inactive) | 0.757 µM (active)

— ChEMBL document CHEMBL1201862, “PubChem BioAssay data set” (2004)
